US20250230193A1, “CYCLIC COMPOUND HAVING SELECTIVE KRAS INHIBITORY EFFECT ON HRAS AND NRAS” (CHUGAI SEIYAKU KABUSHIKI KAISHA, priority 2022, published 2025)
Where a SMILES comes first, the peptide text is derived from it. Bridges are numbered along the chain shown (N, C = ends). [ ]: non-standard residue; d: D form. The star is where a group is joined. hPhe(3,5-F2-4-CF3) = N[C@@H](CCc1cc(F)c(C(F)(F)F)c(F)c1)C(=O)O; hPhe(3-Cl-4-CF3) = N[C@@H](CCc1ccc(C(F)(F)F)c(Cl)c1)C(=O)O; NPrPhe(4-CF3) = CCCN[C@@H](Cc1ccc(C(F)(F)F)cc1)C(=O)O; NEtPhe(4-CF3) = CCN[C@@H](Cc1ccc(C(F)(F)F)cc1)C(=O)O; hPhe(3,4-Cl2) = N[C@@H](CCc1ccc(Cl)c(Cl)c1)C(=O)O; NMePhe(4-Me) = CN[C@@H](Cc1ccc(C)cc1)C(=O)O; NMeGly(cPent) = CN[C@H](C(=O)O)C1CCCC1; Ac4c(3,3-F2) = NC1(C(=O)O)CC(F)(F)C1; αMeI = CC[C@H](C)[C@](C)(N)C(=O)O; NMeD = CN[C@@H](CC(=O)O)C(=O)O; NMeL = CN[C@@H](CC(C)C)C(=O)O; Morpholide = C1CN(*)CCO1; NMeA = CN[C@@H](C)C(=O)O; Ac5c = NC1(C(=O)O)CCCC1; Aze = O=C(O)[C@@H]1CCN1; Ac4c = NC1(C(=O)O)CCC1; NEtG = CCNCC(=O)O; Sar = CNCC(=O)O

How the values were obtained:
[1] = biological target: GDP-bound HRAS wild-type protein (Homo sapiens, UniProt P01112); experiment: Binding to HRAS by surface plasmon resonance (SPR), Single Cycle Kinetics; conditions: for HRAS/KRAS (ratio of KD value with respect to HRAS to KD value with respect to KRAS): GDP-bound HRAS wild-type vs GDP-bound KRAS wild-type
GDP-bound HRAS wild-type protein, sequence (P01112 whole entry): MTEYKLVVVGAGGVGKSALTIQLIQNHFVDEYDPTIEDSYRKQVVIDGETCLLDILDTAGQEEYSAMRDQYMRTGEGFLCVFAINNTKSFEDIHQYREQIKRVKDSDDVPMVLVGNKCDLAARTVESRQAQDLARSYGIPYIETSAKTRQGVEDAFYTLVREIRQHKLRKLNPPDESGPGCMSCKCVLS

[2] = biological target: GDP-bound NRAS wild-type protein (Homo sapiens, UniProt P01111); experiment: Binding to NRAS by surface plasmon resonance (SPR), Single Cycle Kinetics; conditions: for NRAS/KRAS (ratio of KD value with respect to NRAS to KD value with respect to KRAS): GDP-bound NRAS wild-type vs GDP-bound KRAS wild-type
GDP-bound NRAS wild-type protein, sequence (P01111 whole entry): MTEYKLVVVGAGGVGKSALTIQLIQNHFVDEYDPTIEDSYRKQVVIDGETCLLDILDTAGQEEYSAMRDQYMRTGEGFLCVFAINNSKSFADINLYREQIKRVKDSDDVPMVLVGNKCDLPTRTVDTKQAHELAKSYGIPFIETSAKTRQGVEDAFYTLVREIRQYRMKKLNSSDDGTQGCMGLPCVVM

| Compound | HRAS/KRAS (ratio of KD for GDP-bound HRAS wild-type to KD for KRAS) ([1]; SPR) | NRAS/KRAS (ratio of KD for GDP-bound NRAS wild-type to KD for KRAS) ([2]; SPR) | HRAS/KRAS (ratio of KD value with respect to GDP-bound HRAS wild-type protein to KD value with respect to KRAS) ([1]; class symbols) | NRAS/KRAS (ratio of KD value with respect to GDP-bound NRAS wild-type protein to KD value with respect to KRAS) ([2]; class symbols) | other results |
| --- | --- | --- | --- | --- | --- |
| CCCN1C(=O)CN(C)C(=O)CN(C)C(=O)[C@H]([C@@H](C)CC)NC(=O)[C@H](CC(C)C)N(C)C(=O)C[C@@H](C(=O)N(C)C)N(C)C(=O)[C@H](C2CCCC2)N(C)C(=O)[C@](C)([C@@H](C)CC)NC(=O)[C@@H]2CCCN2C(=O)[C@H](CCc2cc(F)c(C(F)(F)F)c(F)c2)NC(=O)CN(C)C(=O)[C@@H]1Cc1ccc(C(F)(F)F)cc1 [PP0736] ([NMeL]I[Sar][Sar][NPrPhe(4-CF3)][Sar][hPhe(3,5-F2-4-CF3)]P[αMeI][NMeGly(cPent)][NMeD]-NMe2; lactam N-11) |  |  |  |  | HRAS/KRAS (ratio of KD value with respect to GDP-bound HRAS wild-type protein to KD value with respect to KRAS) ([1]; SPR): C (A compound having a KD ratio of 0.1 or more and less than 3 is denoted as C); NRAS/KRAS (ratio of KD value with respect to GDP-bound NRAS wild-type protein to KD value with respect to KRAS) ([2]; SPR): B (a compound having 3 or more and less than 10 is denoted as B) |
| CCCN1C(=O)[C@@H]2CCN2C(=O)[C@H](C)N(C)C(=O)[C@H]([C@@H](C)CC)NC(=O)[C@H](CC(C)C)N(C)C(=O)C[C@@H](C(=O)N2CCOCC2)N(C)C(=O)[C@H](C2CCCC2)N(C)C(=O)C2(CCC2)NC(=O)[C@@H]2CCCN2C(=O)[C@H](CCc2ccc(C(F)(F)F)c(Cl)c2)NC(=O)CN(C)C(=O)[C@@H]1Cc1ccc(C(F)(F)F)cc1 [PP0198] ([NMeL]I[NMeA][Aze][NPrPhe(4-CF3)][Sar][hPhe(3-Cl-4-CF3)]P[Ac4c][NMeGly(cPent)][NMeD]-Morpholide; lactam N-11) | B (a compound having 3 or more and less than 10 is denoted as B) | C (A compound having a KD ratio of 0.1 or more and less than 3 is denoted as C) |  |  |  |
| CC[C@H](C)[C@@H]1NC(=O)[C@H](CC(C)C)N(C)C(=O)C[C@@H](C(=O)N2CCOCC2)N(C)C(=O)[C@H](C2CCCC2)N(C)C(=O)C2(CCCC2)NC(=O)[C@@H]2CCCN2C(=O)[C@H](CCc2ccc(C(F)(F)F)c(Cl)c2)NC(=O)CN(C)C(=O)[C@H](Cc2ccc(C)cc2)N(C)C(=O)CN(CC)C(=O)CN(C)C1=O [PP0019] ([NMeL]I[Sar][NEtG][NMePhe(4-Me)][Sar][hPhe(3-Cl-4-CF3)]P[Ac5c][NMeGly(cPent)][NMeD]-Morpholide; lactam N-11) | C (A compound having a KD ratio of 0.1 or more and less than 3 is denoted as C) | C (A compound having a KD ratio of 0.1 or more and less than 3 is denoted as C) |  |  |  |
| CC[C@H](C)[C@@H]1NC(=O)[C@H](COC)N(C)C(=O)C[C@@H](C(=O)N2CCOCC2)N(C)C(=O)[C@H](C2CCCC2)N(C)C(=O)C2(CCC2)NC(=O)[C@@H]2CC(F)(F)CN2C(=O)[C@H](CCc2cc(F)c(C(F)(F)F)c(F)c2)NC(=O)CN(C)C(=O)[C@H](Cc2ccc(C(F)(F)F)cc2)N2CCCCC[C@@H](C2=O)N(C)C(=O)CNC1=O [PP0861] |  |  |  |  | HRAS/KRAS (ratio of KD value with respect to HRAS to KD value with respect to KRAS) ([1]; SPR): B (a compound having 3 or more and less than 10 is denoted as B); NRAS/KRAS (ratio of KD value with respect to NRAS to KD value with respect to KRAS) ([2]; SPR): B (a compound having 3 or more and less than 10 is denoted as B) |
| CC[C@H](C)[C@@H]1NC(=O)[C@H](CC(C)C)N(C)C(=O)C[C@@H](C(=O)N2CCOCC2)N(C)C(=O)[C@H](C2CCCC2)N(C)C(=O)C2(CCCC2)NC(=O)[C@@H]2CCCN2C(=O)[C@H](CCc2ccc(Cl)c(Cl)c2)NC(=O)CN(C)C(=O)[C@H](Cc2ccc(C(F)(F)F)cc2)N(CC)C(=O)CN(C)C(=O)CN(C)C1=O [PP0237] ([NMeL]I[Sar][Sar][NEtPhe(4-CF3)][Sar][hPhe(3,4-Cl2)]P[Ac5c][NMeGly(cPent)][NMeD]-Morpholide; lactam N-11) | C (A compound having a KD ratio of 0.1 or more and less than 3 is denoted as C) | B (a compound having 3 or more and less than 10 is denoted as B) |  |  |  |
| CCC[C@H]1C(=O)N[C@@H]([C@@H](C)CC)C(=O)N(C)CC(=O)N(C)[C@H]2C/C=C\CCN(C2=O)[C@@H](Cc2ccc(C(F)(F)F)cc2)C(=O)N(C)CC(=O)N[C@@H](CCc2cc(Cl)c3sccc3c2)C(=O)N2C[C@H](OCC)C[C@H]2C(=O)NC2(CC(C)(C)C2)C(=O)N(C)[C@@H](C2CCCC2)C(=O)N(C)[C@H](C(=O)N(C)C)CC(=O)N1C [PP2946] |  |  | A (a compound having 10 or more and less than 20 is denoted as A) | A (a compound having 10 or more and less than 20 is denoted as A) |  |
| CCOC[C@H]1C(=O)N[C@@H]([C@@H](C)CC)C(=O)N(C2CC2)CC(=O)N(C)[C@H]2C/C=C\CCN(C2=O)[C@@H](Cc2ccc(C)cc2)C(=O)N(C)CC(=O)N[C@@H](CCc2ccc(Cl)c(Cl)c2)C(=O)N2C[C@H](OCC)C[C@H]2C(=O)NC2(CC(C)(C)C2)C(=O)N(C)[C@@H](CC(C)(C)C)C(=O)N(C)[C@H](C(=O)N(C)C)CC(=O)N1C [PP2728] |  |  | A (a compound having 10 or more and less than 20 is denoted as A) | AA (a compound having 20 or more is denoted as AA) |  |
| CCCN1C(=O)CN(C)C(=O)CN(C)C(=O)[C@H]([C@@H](C)CC)NC(=O)[C@H](CC(C)C)N(C)C(=O)C[C@@H](C(=O)N2CCOCC2)N(C)C(=O)[C@H](C2CCCC2)N(C)C(=O)C2(CC(F)(F)C2)NC(=O)[C@@H]2CCCN2C(=O)[C@H](CCc2cc(F)c(C(F)(F)F)c(F)c2)NC(=O)CN(C)C(=O)[C@@H]1Cc1ccc(C(F)(F)F)cc1 [PP0766] ([NMeL]I[Sar][Sar][NPrPhe(4-CF3)][Sar][hPhe(3,5-F2-4-CF3)]P[Ac4c(3,3-F2)][NMeGly(cPent)][NMeD]-Morpholide; lactam N-11) |  |  |  |  | HRAS/KRAS (ratio of KD value with respect to GDP-bound HRAS wild-type protein to KD value with respect to KRAS) ([1]; SPR): B (a compound having 3 or more and less than 10 is denoted as B); NRAS/KRAS (ratio of KD value with respect to GDP-bound NRAS wild-type protein to KD value with respect to KRAS) ([2]; SPR): B (a compound having 3 or more and less than 10 is denoted as B) |
| CCO[C@@H]1C[C@H]2C(=O)NC3(CCC3)C(=O)N(C)[C@@H](C3CCCC3)C(=O)N(C)[C@H](C(=O)N(C)C)CC(=O)N(C)[C@@H](CC3CCCC3)C(=O)N[C@@H]([C@@H](C)CC)C(=O)N(C)CC(=O)N(C)[C@H]3C/C=C\CCN(C3=O)[C@@H](Cc3ccc(C)cc3)C(=O)N(C)CC(=O)N[C@@H](CCc3cc(C)c(C(F)F)c(C)c3)C(=O)N2C1 [PP2675] |  |  | A (a compound having 10 or more and less than 20 is denoted as A) | A (a compound having 10 or more and less than 20 is denoted as A) |  |
| CCO[C@@H]1C[C@H]2C(=O)NC3(CCC3)C(=O)N(C)[C@@H](C3CCCC3)C(=O)N(C)[C@H](C(=O)N3CCOCC3)CC(=O)N(C)[C@@H](CC(C)C)C(=O)N[C@@H]([C@@H](C)CC)C(=O)N(C)CC(=O)N(C)[C@H]3CCCCCN(C3=O)[C@@H](Cc3ccc(F)c(C)c3)C(=O)N(C)CC(=O)N[C@@H](CCc3cc(F)c(C(F)(F)F)c(F)c3)C(=O)N2C1 [PP0922] |  |  |  |  | HRAS/KRAS (ratio of KD value with respect to HRAS to KD value with respect to KRAS) ([1]; SPR): B (a compound having 3 or more and less than 10 is denoted as B); NRAS/KRAS (ratio of KD value with respect to NRAS to KD value with respect to KRAS) ([2]; SPR): B (a compound having 3 or more and less than 10 is denoted as B) |
